Patent publication EP0509845A1, “(+) and (-) enantiomers of 5-aliphatic-6-(benzoxazinyl- or benzothiazinyl)-2,3,4,5-tetrahydropyridazin-3-ones” (ORTHO PHARMACEUTICAL CORPORATION, priority 1991, dated 1992)
Where two headings read alike, the source gives them in different places.

Columns and labels:
[1] = molecular target: T1, canine cardiac cyclic nucleotide phosphodiesterase (PDE) fraction III (Canis lupus familiaris, UniProt A0A8I3NYE0); assay: Cyclic AMP phosphodiesterase assay with fraction III isoenzyme, comparative testing; format: biochemical
T1 construct: The fraction III isoenzyme was pooled and dialyzed; from tissue; host or cells: canine heart, soluble supernatant, DEAE cellulose fraction III (800 mM sodium acetate eluate)
T1 sequence (A0A8I3NYE0 1-1135): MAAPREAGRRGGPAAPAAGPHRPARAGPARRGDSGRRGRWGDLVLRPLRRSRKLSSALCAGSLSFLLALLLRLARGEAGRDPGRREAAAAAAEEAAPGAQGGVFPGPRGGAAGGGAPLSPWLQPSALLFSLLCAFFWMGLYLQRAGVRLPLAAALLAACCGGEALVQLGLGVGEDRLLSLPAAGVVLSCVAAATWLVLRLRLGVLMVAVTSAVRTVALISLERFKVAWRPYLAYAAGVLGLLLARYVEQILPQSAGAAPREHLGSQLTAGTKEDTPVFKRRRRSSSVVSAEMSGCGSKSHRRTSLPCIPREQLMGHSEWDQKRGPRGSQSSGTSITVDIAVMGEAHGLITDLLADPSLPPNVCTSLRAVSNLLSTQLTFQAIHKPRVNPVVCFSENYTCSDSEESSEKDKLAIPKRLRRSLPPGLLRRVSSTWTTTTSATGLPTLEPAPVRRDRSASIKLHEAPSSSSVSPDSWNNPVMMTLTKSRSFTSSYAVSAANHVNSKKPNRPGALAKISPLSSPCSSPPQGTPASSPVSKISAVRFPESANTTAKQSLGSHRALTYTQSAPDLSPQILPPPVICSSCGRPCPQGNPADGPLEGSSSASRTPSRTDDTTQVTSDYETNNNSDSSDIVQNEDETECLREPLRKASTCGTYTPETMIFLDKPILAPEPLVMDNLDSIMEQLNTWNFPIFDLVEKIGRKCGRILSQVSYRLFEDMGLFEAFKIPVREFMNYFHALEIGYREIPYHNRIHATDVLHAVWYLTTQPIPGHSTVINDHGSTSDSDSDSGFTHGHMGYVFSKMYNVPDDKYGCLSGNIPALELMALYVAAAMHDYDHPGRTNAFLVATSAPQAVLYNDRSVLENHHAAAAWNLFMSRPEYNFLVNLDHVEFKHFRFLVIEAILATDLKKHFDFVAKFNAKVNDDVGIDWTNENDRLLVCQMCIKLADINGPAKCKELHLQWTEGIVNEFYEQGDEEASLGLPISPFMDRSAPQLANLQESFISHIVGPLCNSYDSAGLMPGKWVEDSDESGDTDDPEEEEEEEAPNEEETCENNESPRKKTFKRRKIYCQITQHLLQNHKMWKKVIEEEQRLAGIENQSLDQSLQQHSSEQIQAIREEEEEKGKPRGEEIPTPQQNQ

[2] = tested on: human platelet aggregation; assay: Platelet aggregation in vitro in platelet rich plasma; format: cell-based; details: for IC50: human PRP
Protocol: The racemate and enantiomeric Bemoradan were tested for their effects in vitro on human platelet aggregation. Platelet rich plasma (PRP) was prepared from human donors who were free of aspirin for the preceding week. Venous blood was collected in sodium citrate vacutainer tubes and PRP was obtained by centrifuging the blood at l000 rpm for 5 min. Compounds were dissolved in methanol and added to 480 µl of PRP in a Chrono-log dual channel aggregometer l min prior to aggregant. Serotonin at 5 µM or ADP at 2 µM were the aggregating agents.

[3] = Table I summary, canine cardiac PDE fraction III, read-out: PDE III inhibition (IC50)
[4] = canine heart fraction III, 0.1 µM cyclic AMP, read-out: PDE III IC50
[5] = ADP at 2 µM, read-out: Antiaggregatory IC50 (µM) vs. ADP
[6] = Serotonin at 5 µM, read-out: Antiaggregatory IC50 (µM) vs. 5-HT
[7] = Table I summary, ADP at 2 µM as aggregant, read-out: Platelet aggregation (IC50) vs. ADP
[8] = Table I summary, serotonin at 5 µM as aggregant, read-out: Platelet aggregation (IC50) vs. 5-HT (serotonin)

Row | IC50 [1, 3] | IC50 [1, 4] | IC50 [2, 5] | IC50 [2, 6] | IC50 [2, 7] | IC50 [2, 8] | Potency Difference (-vs+), PDE III inhibition (IC50) ([1]; (-) isomer versus (+) isomer) | times more potent than the (+) isomer, inhibition of PDE III ([1]; (-) isomer versus (+) isomer) | times more potent than the racemate, inhibition of PDE III ([1]; (-) isomer versus racemate) | Potency Difference (-vs+), Platelet aggregation (IC50) vs. 5-HT (serotonin) ([2]; (-) isomer versus (+) isomer) | Potency Difference (-vs+), Platelet aggregation (IC50) vs. ADP ([2]; (-) isomer versus (+) isomer) | SMILES
1 | 8000 nM | 8000 nM | 3.8 µM | 8 µM | 3.8 µM | 8 µM |  |  |  |  |  | CC1CC(=O)NN=C1c1ccc2c(c1)OCC(=O)N2 (single isomer, unassigned; isomer 6) [(+) isomer, 6-(3,4-dihydro-3-oxo-l,4(2H)-benzoxazin-7-yl)-2,3,4,5-tetrahydro-5-methyl-pyridazin-3-one]
2 | 180 nM | 180 nM | 0.32 µM | 0.5 µM | 0.32 µM | 0.5 µM | 44 x | ~44 times | approximately 4 times | 16x | 12x | CC1CC(=O)NN=C1c1ccc2c(c1)OCC(=O)N2 (single isomer, unassigned; isomer 6) [(-) isomer, 6-(3,4-dihydro-3-oxo-l,4(2H)-benzoxazin-7-yl)-2,3,4,5-tetrahydro-5-methyl-pyridazin-3-one]
